Patent publication US9504729B2, “Antiangiogenic small molecules and methods of use” (The United States of America, as represented by the …, priority 2009, dated 2016)

Tested on: angiogenesis genes in dermal microvascular endothelial cells
Test: Real time RT-PCR of angiogenesis gene expression during endothelial tube formation
Format: cell-based
Details: 1 μM SM, 24 hours

Structure (SMILES): O=C1C(=Cc2ccccc2)C(NC2CCCCC2)c2ccccc21 (centres unmarked) [compound 150117]
- Log2 fold-change of gene expression: 1839: 0.9
- Log2 fold-change of gene expression: 4247: −0.1
- Log2 fold-change of gene expression: 5569: −0.1
- Log2 fold-change of gene expression: 8131: −0.5
- Log2 fold-change of gene expression: 9569: −4.2
- Log2 fold-change of gene expression: 10988: 0.8
- Log2 fold-change of gene expression: 23001: −1.0
- Log2 fold-change of gene expression: 55332: −1.7
- Log2 fold-change of gene expression: 57722: −0.9
- Log2 fold-change of gene expression: 58488: 0.3
- Log2 fold-change of gene expression: 90780: −1.4
- Log2 fold-change of gene expression: 134265: −1.0
- Log2 fold-change of gene expression: AKT1: 1.6
- Log2 fold-change of gene expression: ANGPT1: 1.7
- Log2 fold-change of gene expression: ANGPT2: −1.2
- Log2 fold-change of gene expression: ANGPTL3: 1.8
- Log2 fold-change of gene expression: ANGPTL4: −4.0
- Log2 fold-change of gene expression: ANPEP: −1.7
- Log2 fold-change of gene expression: ANTXR1: −4.2
- Log2 fold-change of gene expression: APOE: −1.0
- Log2 fold-change of gene expression: ARHGEF1: −2.0
- Log2 fold-change of gene expression: Acvrl1: −1.2
- Log2 fold-change of gene expression: Adcy4: −0.5
- Log2 fold-change of gene expression: BAL1: 0.8
- Log2 fold-change of gene expression: BMP1: −0.4
- Log2 fold-change of gene expression: C1orf54: −1.3
- Log2 fold-change of gene expression: CALD1: 1.1
- Log2 fold-change of gene expression: CCL2: 0.9
- Log2 fold-change of gene expression: CCL11: 0.7
- Log2 fold-change of gene expression: CD248: −0.4
- Log2 fold-change of gene expression: CDH5: −1.6
- Log2 fold-change of gene expression: CENTD3: −0.2
- Log2 fold-change of gene expression: CLIC1: 0.0
- Log2 fold-change of gene expression: COL4A3: 2.4
- Log2 fold-change of gene expression: COL18A1: 0.8
- Log2 fold-change of gene expression: COMT: −1.0
- Log2 fold-change of gene expression: CST4: −0.1
- Log2 fold-change of gene expression: CTTNBP2NL: −2.3
- Log2 fold-change of gene expression: CXCL3: 0.8
- Log2 fold-change of gene expression: CXCL5: −3.5
- Log2 fold-change of gene expression: CXCL6: 1.2
- Log2 fold-change of gene expression: CXCL9: 1.2
- Log2 fold-change of gene expression: CXCL10: −1.7
- Log2 fold-change of gene expression: Calcr1: −5.4
- Log2 fold-change of gene expression: Caskin2: −2.7
- Log2 fold-change of gene expression: Ccbp2: 0.4
- Log2 fold-change of gene expression: Cldn5: 0.1
- Log2 fold-change of gene expression: DGKG: 3.4
- Log2 fold-change of gene expression: DKK3: −3.3
- Log2 fold-change of gene expression: DLL4: 5.5
- Log2 fold-change of gene expression: DUT: −0.2
- Log2 fold-change of gene expression: EFNA1: 0.4
- Log2 fold-change of gene expression: EFNA3: −1.8
- Log2 fold-change of gene expression: EFNB2: 0.4
- Log2 fold-change of gene expression: EGF: −2.3
- Log2 fold-change of gene expression: ENG: −0.1
- Log2 fold-change of gene expression: EPHB4: −1.2
- Log2 fold-change of gene expression: EREG: −2.4
- Log2 fold-change of gene expression: ESAM1: −2.6
- Log2 fold-change of gene expression: EXTL3: 0.0
- Log2 fold-change of gene expression: Egf17: −3.3
- Log2 fold-change of gene expression: Ehd4: −0.6
- Log2 fold-change of gene expression: Entpd1: −8.9
- Log2 fold-change of gene expression: Epas1: 0.4
- Log2 fold-change of gene expression: EphB1: 0.7
- Log2 fold-change of gene expression: Erg: −3.2
- Log2 fold-change of gene expression: FGF1: −3.8
- Log2 fold-change of gene expression: FGF2: 0.0
- Log2 fold-change of gene expression: FGFR3: 1.0
- Log2 fold-change of gene expression: FIGF: 2.4
- Log2 fold-change of gene expression: FLT1: −0.5
- Log2 fold-change of gene expression: Fgd5: −1.2
- Log2 fold-change of gene expression: GPCR124: −2.9
- Log2 fold-change of gene expression: GRRP1: 0.0
- Log2 fold-change of gene expression: Grp116: −3.1
- Log2 fold-change of gene expression: HAND2: 1.5
- Log2 fold-change of gene expression: HGF: 1.5
- Log2 fold-change of gene expression: HIF1A: −1.8
- Log2 fold-change of gene expression: HPSE: −0.2
- Log2 fold-change of gene expression: Hspa12b: −3.5
- Log2 fold-change of gene expression: ID1: 0.3
- Log2 fold-change of gene expression: ID3: 0.5
- Log2 fold-change of gene expression: IFNA1: 1.9
- Log2 fold-change of gene expression: IFNB1: 2.1
- Log2 fold-change of gene expression: IFNG: −1.9
- Log2 fold-change of gene expression: IGF1: −0.2
- Log2 fold-change of gene expression: IL1B: 9.5
- Log2 fold-change of gene expression: IL6: 2.2
- Log2 fold-change of gene expression: IL8: 6.0
- Log2 fold-change of gene expression: ITGAV: −1.8
- Log2 fold-change of gene expression: ITGB3: −1.4
- Log2 fold-change of gene expression: Icam1: 0.6
- Log2 fold-change of gene expression: Icam2: 0.0
- Log2 fold-change of gene expression: JAG1: 0.3
- Log2 fold-change of gene expression: KDR: −2.1
- Log2 fold-change of gene expression: Kifc1: −0.1
- Log2 fold-change of gene expression: LAMAS5: −2.2
- Log2 fold-change of gene expression: LECT1: −0.2
- Log2 fold-change of gene expression: LEP: −0.2
- Log2 fold-change of gene expression: Lasts2: 0.3
- Log2 fold-change of gene expression: Lrrk1: −1.8
- Log2 fold-change of gene expression: MDK: −1.5
- Log2 fold-change of gene expression: MMP2: −0.6
- Log2 fold-change of gene expression: MMP9: −0.3
- Log2 fold-change of gene expression: MMP11: −0.2
- Log2 fold-change of gene expression: MRC2: −0.7
- Log2 fold-change of gene expression: Mmm2: −3.4
- Log2 fold-change of gene expression: Myo1b: −2.7
- Log2 fold-change of gene expression: NID1: −5.2
- Log2 fold-change of gene expression: NM023516: 0.6
- Log2 fold-change of gene expression: NRP1: −2.0
- Log2 fold-change of gene expression: NRP2: −3.2
- Log2 fold-change of gene expression: Notch4: −0.7
- Log2 fold-change of gene expression: Npr3: 0.5
- Log2 fold-change of gene expression: PALD: −1.7
- Log2 fold-change of gene expression: PDCD2: −0.9
- Log2 fold-change of gene expression: PDGFA: −0.9
- Log2 fold-change of gene expression: PECAM1: −2.5
- Log2 fold-change of gene expression: PGF: −1.6
- Log2 fold-change of gene expression: PLAU: 0.0
- Log2 fold-change of gene expression: PLG: −3.9
- Log2 fold-change of gene expression: PNMT: −0.4
- Log2 fold-change of gene expression: PROK2: 0.7
- Log2 fold-change of gene expression: PTGS1: 0.3
- Log2 fold-change of gene expression: PTPRCAP: 0.2
- Log2 fold-change of gene expression: Pltp: 0.9
- Log2 fold-change of gene expression: Ptprb: −2.6
- Log2 fold-change of gene expression: Ptprm: −1.4
- Log2 fold-change of gene expression: RAMP2: −4.4
- Log2 fold-change of gene expression: RASD2: −0.1
- Log2 fold-change of gene expression: Rasip1: −1.7
- Log2 fold-change of gene expression: S1PR1: −1.9
- Log2 fold-change of gene expression: SERPINF1: 1.5
- Log2 fold-change of gene expression: SPHK1: 1.2
- Log2 fold-change of gene expression: STAB1: −0.9
- Log2 fold-change of gene expression: Sdc4: 0.2
- Log2 fold-change of gene expression: Sdpr: 0.0
- Log2 fold-change of gene expression: Slc43a3: 0.0
- Log2 fold-change of gene expression: Slco2a1: −2.9
- Log2 fold-change of gene expression: TEK: 0.7
- Log2 fold-change of gene expression: TGFA: 5.3
- Log2 fold-change of gene expression: TGFB1: −1.3
- Log2 fold-change of gene expression: TGFB2: 1.6
- Log2 fold-change of gene expression: TGFBR1: 1.2
- Log2 fold-change of gene expression: THBS1: −0.6
- Log2 fold-change of gene expression: THBS2: 0.9
- Log2 fold-change of gene expression: THY1: −12.7
- Log2 fold-change of gene expression: TIMP1: −0.7
- Log2 fold-change of gene expression: TIMP2: −0.8
- Log2 fold-change of gene expression: TIMP3: −2.7
- Log2 fold-change of gene expression: TNF: 2.4
- Log2 fold-change of gene expression: TNS1: −0.9
- Log2 fold-change of gene expression: TNS3: 0.6
- Log2 fold-change of gene expression: TRA2B: −0.2
- Log2 fold-change of gene expression: TYMP: −1.1
- Log2 fold-change of gene expression: VEGFA: −0.3
- Log2 fold-change of gene expression: VEGFC: 2.0
- Log2 fold-change of gene expression: VGLL4: −3.5
- Log2 fold-change of gene expression: Vwf: −3.7
- Log2 fold-change of gene expression: copa: 0.0
- Log2 fold-change of gene expression: itbp4: −2.5
- Log2 fold-change of gene expression: ralb: −0.7
- Log2 fold-change of gene expression: stard9: 0.1
- Log2 fold-change of gene expression: B2M (1st listing (r49)): 2.8
- Log2 fold-change of gene expression: HPRT1 (1st listing (r50)): −0.4
- Log2 fold-change of gene expression: RPL13A (1st listing (r51)): −0.8
- Log2 fold-change of gene expression: GADPH (1st listing (r52)): −1.3
- Log2 fold-change of gene expression: ACTB (1st listing (r53)): −0.9
- Log2 fold-change of gene expression: PLXDC1 (1st listing (r74)): −3.2
- Log2 fold-change of gene expression: TNFAIP2 (1st listing (r91)): −0.6
- Log2 fold-change of gene expression: Robo4 (1st listing (r95)): −0.2
- Log2 fold-change of gene expression: 151516 (1st listing (r134)): 0.0
- Log2 fold-change of gene expression: TNFAIP2 (2nd listing (r92)): 2.7
- Log2 fold-change of gene expression: B2M (2nd listing (r97)): −1.2
- Log2 fold-change of gene expression: HPRT1 (2nd listing (r98)): 0.6
- Log2 fold-change of gene expression: RPL13A (2nd listing (r99)): 0.1
- Log2 fold-change of gene expression: GADPH (2nd listing (r100)): −0.1
- Log2 fold-change of gene expression: ACTB (2nd listing (r101)): −0.6
- Log2 fold-change of gene expression: PLXDC1 (2nd listing (r104)): −0.6
- Log2 fold-change of gene expression: 151516 (2nd listing (r139)): 0.0
- Log2 fold-change of gene expression: Robo4 (2nd listing (r188)): −0.3
- Log2 fold-change of gene expression: B2M (3rd listing (r145)): −0.7
- Log2 fold-change of gene expression: HPRT1 (3rd listing (r146)): 1.1
- Log2 fold-change of gene expression: RPL13A (3rd listing (r147)): 0.6
- Log2 fold-change of gene expression: GADPH (3rd listing (r148)): −0.5
- Log2 fold-change of gene expression: ACTB (3rd listing (r149)): −0.5
- Log2 fold-change of gene expression: B2M (4th listing (r193)): −0.8
- Log2 fold-change of gene expression: HPRT1 (4th listing (r194)): 0.4
- Log2 fold-change of gene expression: RPL13A (4th listing (r195)): 0.2
- Log2 fold-change of gene expression: GADPH (4th listing (r196)): −0.5
- Log2 fold-change of gene expression: ACTB (4th listing (r197)): −0.2
